Experimental data taken from paper PMC4415987 (Biomarkers : biochemical indicators of exposure, response, …, 2009).

How the values were obtained:
[1] = molecular target: T1, MAO-B (Homo sapiens, UniProt P27338); assay: Platelet MAO-B activity; format: biochemical; settings: human platelets in vitro; for LOAEL toward MAO-B: not modified by MeHg addition
T1 sequence (P27338 1-520): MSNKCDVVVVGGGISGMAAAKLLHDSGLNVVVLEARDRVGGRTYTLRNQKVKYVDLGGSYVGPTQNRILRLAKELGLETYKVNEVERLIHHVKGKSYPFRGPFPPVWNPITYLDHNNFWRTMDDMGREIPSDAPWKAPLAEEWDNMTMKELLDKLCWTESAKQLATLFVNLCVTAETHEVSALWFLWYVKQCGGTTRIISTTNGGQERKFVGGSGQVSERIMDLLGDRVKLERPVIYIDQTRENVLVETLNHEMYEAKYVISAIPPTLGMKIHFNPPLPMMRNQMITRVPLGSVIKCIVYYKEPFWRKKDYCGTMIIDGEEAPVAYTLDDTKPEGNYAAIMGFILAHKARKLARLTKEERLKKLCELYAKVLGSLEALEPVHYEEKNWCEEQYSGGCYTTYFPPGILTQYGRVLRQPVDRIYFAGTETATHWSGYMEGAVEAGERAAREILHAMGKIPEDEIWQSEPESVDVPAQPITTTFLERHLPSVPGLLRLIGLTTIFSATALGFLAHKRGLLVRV

[2] = test system: lymphocyte mAChRs; format: binding, human; settings: for LOAEL toward mAChRs: human lymphocytes in vitro, PCB values regardless of the presence of MeHg
[3] = weaning rats given 1 mg MeHg kg−1 daily perinatally, cited from earlier work

| Structure (SMILES) | LOAEL toward mAChRs [2] [µM] | LOAEL toward MAO-B [1] [µM] | other results |
| --- | --- | --- | --- |
| Clc1cc(Cl)c(-c2cc(Cl)c(Cl)cc2Cl)cc1Cl [PCB-153, 2,2′,4,4′,5,5′-hexachlorobiphenyl] | 1 |  | IC50, MAO-B activity ([1]; in the presence or absence of 1 mM MeHg): No effect |
| [CH3][Hg][Cl] [MeHg, methylmercury] | 1 |  | inhibitory effect on MAO-B activity ([1]; MeHg up to 1 mM): negligible; Hg concentration in the blood ([3]; ref Coccini et al. 2007a): 1.3 ± 0.4 µg/mL; Hg concentration in the brain ([3]; ref Coccini et al. 2007b): 1.5–2.8 ppm; IC50 ([2]; read-out: IC50, inhibition of [3H]QNB binding to lymphocyte mAChRs): 5 ± 0.9 µM |
| Clc1ccc(-c2ccc(Cl)c(Cl)c2)cc1Cl [PCB-77] | 0.1 | 10 |  |
| Clc1ccc(-c2ccc(Cl)cc2Cl)cc1 [PCB-28] | 1 | 10 |  |
| Oc1c(Cl)cc(-c2ccc(Cl)c(Cl)c2)c(Cl)c1Cl [4-OH-PCB-107] | 1 | 10 |  |
| Clc1ccc(-c2ccc(Cl)c(Cl)c2Cl)cc1Cl [PCB-105] | 1 | 1 |  |
| Clc1ccc(-c2cc(Cl)c(Cl)cc2Cl)cc1Cl [PCB-118] | 1 | 10 |  |
